Assay results taken from paper PMC8617944, “Preclinical Pharmacokinetics and Acute Toxicity in Rats of 5-{[(2E)-3-Bromo-3-carboxyprop-2-enoyl]amino}-2-hydroxybenzoic Acid: A Novel 5-Aminosalicylic Acid Derivative with Potent Anti-Inflammatory Activity” (Molecules, 2021).
“Also recorded” adds a separate entry of the source. Where two headings read alike, the source gives them in different places.

What was measured:
[1] = Acute toxicity, up-and-down OECD method (Guideline 425); format: in vivo; settings: both sexes, rat, in vivo, Wistar rats, read-out: Median lethal dose (LD50)
Description: (§1) For all experiments, rats were allowed to acclimatize to the lab conditions during one week prior to undergoing assays. For the pharmacokinetic studies, animals were randomly divided into three groups (n = 6, body weight 300 ± 20 g). Eight female rats were employed in the up-and-down acute toxicity procedure. The animals were fasted for 8 h before and 4 h after drug administration but always given free access to water.
(§2) If the first animal dies, the second animal is given a lower dose. A dose progression factor of 3.2 can be used. […] The animals were monitored for 14 days post-dosing and then sacrificed. The LD50 values were calculated with AOTStatPgm.

Wistar rats = assay: as above; format: in vivo
Description: as §1, §2

[2] = Stability of C1 in rat plasma (RP-HPLC); format: in vitro ADME; settings: for Difference at 12 h (%) / Difference at 24 h (%) / Difference at 48 h (%): rat plasma
Description: C1 was quantified in a liquid chromatograph Agilent 1260 Infinity Series (Agilent Technologies, Palo Alto, CA, USA) equipped with a quaternary pump delivery system (G1311B), robotic autosampler (G1316A), column thermostat (G1316A), and a multi-wavelength UV detector (G1315C). The results were analyzed with OpenLab CDS EZChrom. Separation was performed on a Zorbax SB-Phenyl column (5 µm, 4.6 × 150 mm, Agilent Technologies, Palo Alto, CA, USA) and UV detection was carried out at 305 nm. The column temperature was maintained at 25 °C, and the injection volume was 10 μL. The mobile phase consisted of a mixture of (A) acetonitrile, (B) methanol, and (C) water at a ratio of 50% A, 10% B, and 40% C, at a flow rate of 1.0 mL/min. The total analysis time for each sample was 5.0 min when using an isocratic elution. It was not necessary to equilibrate between each injection.
In addition, the potential interference of heparin, ketamine, and xylazine was investigated. Method specificity was assessed by the values of peak identity and purity of C1. A peak purity angle that is less than the peak threshold angle is an indication of spectral homogeneity or purity of C1. Stability of C1 in plasma was evaluated in triplicate using the quality control samples at four concentrations. Samples were stored at 25 °C for 12, 24, and 48 h (short-term stability), and three freeze-thaw cycles at −20 to +25 °C for 12, 24, and 48 h. […] The concentration of C1 after each storage period was compared to the initial concentration, which was determined for freshly prepared samples [57, 59].

[3] = set-up: method as in ref 32, 33 = [32]; doi:10.1016/j.arabjc.2016.12.026; 32. Cabrera Pérez L.C. Gutiérrez Sánchez M. Mendieta Wejebe J.E. Hernández Rodríguez M. Fragoso Vázquez M.J. Salazar J.R. Correa Basurto J. Padilla Martínez I.I. Rosales Hernández M.C. Novel 5-aminosa || [33]; 33. Correa Basurto J. Rosales Hernández M.C. Mendieta Wejebe J.E. Trujillo Ferrara J.G. Padilla Martínez I.I. Ramírez Durán L.A. Alemán González Duhart D. Síntesis de un derivado del ácido 5-aminosali; settings: 0.408 mM; cited from earlier work
[4] = refrigeration (4 °C), 0.1 µg/mL
[5] = refrigeration (4 °C), 0.5 µg/mL
[6] = refrigeration (4 °C), 100 µg/mL
[7] = room temperature (25 °C), 0.1 µg/mL, difference to nominal concentration
[8] = room temperature (25 °C), 0.5 µg/mL
[9] = room temperature (25 °C), 10 µg/mL
[10] = room temperature (25 °C), 100 µg/mL
[11] = three freeze–thaw cycles (−20 to +25 °C), 0.1 µg/mL
[12] = three freeze–thaw cycles (−20 to +25 °C), 0.5 µg/mL
[13] = three freeze–thaw cycles (−20 to +25 °C), 10 µg/mL
[14] = three freeze–thaw cycles (−20 to +25 °C), 100 µg/mL

Q: For `O=C(/C=C(/Br)C(=O)O)Nc1ccc(O)c(C(=O)O)c1` [Compound C1, 5-{[(2E)-3-bromo-3-carboxyprop-2-enoyl]amino}-2-hydroxybenzoic acid], which LD50 at 14 days ([1]; ip) is on record?
A: > 1100 mg/kg

Q: And the LD50 at 14 days ([1]; po)?
A: > 2000 mg/kg

Q: And the GHS category (Wistar rats; i.p. route)?
A: 4

Q: And the “macroscopic changes at necropsy” value (Wistar rats; liver, small intestine, colon, heart, spleen, stomach, kidneys)?
A: no macroscopic changes were observed; also recorded: non-macroscopic changes

Q: What about the GHS category (Wistar rats; p.o. route) of the same molecule?
A: 5

Q: What about the signs of toxicity (Wistar rats; p.o. route, 14 days) of the same molecule?
A: did not show any signs of apparent toxicity

Q: And the “stability in rat plasma” value ([2]; 4 °C)?
A: up to 72 h at 4 °C

Q: What about the “stability in rat plasma” value ([2]; 25 °C) of the same molecule?
A: stable in rat plasma stored up to 48 h at 25 °C

Q: And the “Difference at 12 h (%)” value [2, 4]?
A: 5.1%

Q: What about the “Difference at 24 h (%)” value [2, 4] of the same molecule?
A: 14.0%

Q: And the “Difference at 48 h (%)” value [2, 4]?
A: 4.3%

Q: And the “Difference at 12 h (%)” value [2, 5]?
A: 4.0%

Q: And the “Difference at 24 h (%)” value [2, 5]?
A: 3.6%

Q: What about the “Difference at 48 h (%)” value [2, 5] of the same molecule?
A: 5.3%

Q: And the “Difference at 12 h (%)” value ([2]; refrigeration (4 °C), 10 µg/mL)?
A: 10.1%

Q: And the “Difference at 24 h (%)” value ([2]; refrigeration (4 °C), 10 µg/mL)?
A: 13.1%

Q: And the “Difference at 48 h (%)” value ([2]; refrigeration (4 °C), 10 µg/mL)?
A: 9.3%

Q: And the “Difference at 12 h (%)” value [2, 6]?
A: 1.2%

Q: And the “Difference at 24 h (%)” value [2, 6]?
A: 0.2%

Q: And the “Difference at 48 h (%)” value [2, 6]?
A: 5.2%

Q: What about the “Difference at 12 h (%)” value [2, 7] of the same molecule?
A: 10.7%

Q: And the “Difference at 24 h (%)” value [2, 7]?
A: 3.2%

Q: What about the “Difference at 48 h (%)” value [2, 7] of the same molecule?
A: 3.8%

Q: And the “Difference at 12 h (%)” value [2, 8]?
A: 3.2%

Q: And the “Difference at 24 h (%)” value [2, 8]?
A: 7.8%

Q: What about the “Difference at 48 h (%)” value [2, 8] of the same molecule?
A: 4.1%

Q: And the “Difference at 12 h (%)” value [2, 9]?
A: 9.5%

Q: And the “Difference at 24 h (%)” value [2, 9]?
A: 6.5%

Q: What about the “Difference at 48 h (%)” value [2, 9] of the same molecule?
A: 3.7%

Q: And the “Difference at 12 h (%)” value [2, 10]?
A: 0.5%

Q: And the “Difference at 24 h (%)” value [2, 10]?
A: 6.5%

Q: What about the “Difference at 48 h (%)” value [2, 10] of the same molecule?
A: 5.4%

Q: And the “Difference at 12 h (%)” value [2, 11]?
A: 5.1%

Q: And the “Difference at 24 h (%)” value [2, 11]?
A: 1.76%

Q: And the “Difference at 48 h (%)” value [2, 11]?
A: 3.4%

Q: What about the “Difference at 12 h (%)” value [2, 12] of the same molecule?
A: 0.1%

Q: And the “Difference at 24 h (%)” value [2, 12]?
A: 0.3%

Q: And the “Difference at 48 h (%)” value [2, 12]?
A: 1.0%

Q: And the “Difference at 12 h (%)” value [2, 13]?
A: 0.7%

Q: And the “Difference at 24 h (%)” value [2, 13]?
A: 1.2%

Q: What about the “Difference at 48 h (%)” value [2, 13] of the same molecule?
A: 3.2%

Q: And the “Difference at 12 h (%)” value [2, 14]?
A: 0.1%

Q: And the “Difference at 24 h (%)” value [2, 14]?
A: 0.6%

Q: And the “Difference at 48 h (%)” value [2, 14]?
A: 2.0%

Q: What about the “stability in rat plasma” value ([2]; three freeze–thaw cycles) of the same molecule?
A: stable before the three freeze–thaw cycles

Q: And the “reduction of the free radical DPPH” value [3]?
A: about 90%
